Test results as given in BindingDB's records for PubMed 39722476 (Nanjing University of Chinese Medicine).

Molecular target: Methylosome protein 50/Protein arginine N-methyltransferase 5 (Homo sapiens, UniProt O14744+Q9BQA1)
Test: Inhibition of recombinant N-terminal FLAG-tagged human full-length PRMT5/full length human MEP50 extracted from baculovirus expression system using [3H]-SAM as substrate preincubated for 15 mins followed by substrate addition and measured after 60 mins by multimode plate reader analysis

Sequence of Methylosome protein 50/Protein arginine N-methyltransferase 5 (O14744 whole entry): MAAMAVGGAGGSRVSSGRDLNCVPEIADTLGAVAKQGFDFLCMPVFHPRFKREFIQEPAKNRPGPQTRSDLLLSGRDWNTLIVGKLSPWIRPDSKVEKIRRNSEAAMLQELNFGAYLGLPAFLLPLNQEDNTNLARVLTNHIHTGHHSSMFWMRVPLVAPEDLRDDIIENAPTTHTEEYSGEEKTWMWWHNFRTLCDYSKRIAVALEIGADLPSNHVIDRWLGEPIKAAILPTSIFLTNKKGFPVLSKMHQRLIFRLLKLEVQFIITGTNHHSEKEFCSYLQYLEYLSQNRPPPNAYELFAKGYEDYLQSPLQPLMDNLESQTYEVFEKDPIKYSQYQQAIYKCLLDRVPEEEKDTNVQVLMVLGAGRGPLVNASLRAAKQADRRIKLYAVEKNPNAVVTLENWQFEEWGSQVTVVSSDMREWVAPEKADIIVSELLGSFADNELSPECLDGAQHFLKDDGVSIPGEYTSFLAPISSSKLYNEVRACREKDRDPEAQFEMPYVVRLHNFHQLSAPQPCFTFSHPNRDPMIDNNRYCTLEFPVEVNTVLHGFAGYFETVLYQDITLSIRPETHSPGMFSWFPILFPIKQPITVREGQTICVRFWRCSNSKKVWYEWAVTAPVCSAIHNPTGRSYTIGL
Sequence of Methylosome protein 50/Protein arginine N-methyltransferase 5 (Q9BQA1 whole entry): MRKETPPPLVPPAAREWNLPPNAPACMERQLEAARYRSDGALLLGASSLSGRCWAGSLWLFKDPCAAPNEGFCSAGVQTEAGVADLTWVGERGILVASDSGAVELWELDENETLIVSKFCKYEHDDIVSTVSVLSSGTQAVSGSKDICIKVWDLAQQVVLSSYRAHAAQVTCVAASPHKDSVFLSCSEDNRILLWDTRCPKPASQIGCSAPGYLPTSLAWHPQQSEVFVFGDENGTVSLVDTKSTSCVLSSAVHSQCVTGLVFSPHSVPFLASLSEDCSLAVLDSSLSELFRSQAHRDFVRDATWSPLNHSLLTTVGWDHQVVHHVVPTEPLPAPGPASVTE

- IC50: 0.033 µM
SMILES: CC(=O)N1CCC(Nc2cc3c(cn2)C2(CC2)CN(C[C@H](O)CN2CCc4ccccc4C2)C3=O)CC1 [US20240116918, Example 1]
